Assay results from PubChem BioAssay AID2060905 (Molecular Pharmacology Branch, DTP, NCI, 2025).
Each block holds one molecule with its values, some of them ahead of it.

Test system: 282377-053-R-J1-PDC complex spheroid viability
Test: Anticancer human tumor 282377-053-R-J1-PDC patient-derived colon adenocarcinoma cell line growth inhibition [RAS]
Conditions: for IC50: curve of first compound; for viability, T/C: stronger effect = lower value
Summary of the method: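 Tumour cells grown as complex spheroids with HUVEC endothelial cells and mesenchymal stem cells, treated with RAS pathway inhibitor combinations. Each agent spans half-log steps from near clinical Cmax, or 10 microM where Cmax is unknown.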

[1] = second compound 0.000949 µM, first compound 0.00316 µM
[2] = second compound 0.000949 µM, first compound 0.01 µM
[3] = second compound 0.000949 µM, first compound 0.0316 µM
[4] = second compound 0.000949 µM, first compound 0.1 µM
[5] = second compound 0.000949 µM, first compound 0.316 µM
[6] = second compound 0.000949 µM, first compound 1 µM
[7] = second compound 0.003 µM, first compound 0.00316 µM
[8] = second compound 0.003 µM, first compound 0.01 µM
[9] = second compound 0.003 µM, first compound 0.0316 µM
[10] = second compound 0.003 µM, first compound 0.1 µM
[11] = second compound 0.003 µM, first compound 0.316 µM
[12] = second compound 0.003 µM, first compound 1 µM
[13] = second compound 0.00949 µM, first compound 0.00316 µM
[14] = second compound 0.00949 µM, first compound 0.01 µM
[15] = second compound 0.00949 µM, first compound 0.0316 µM
[16] = second compound 0.00949 µM, first compound 0.1 µM
[17] = second compound 0.00949 µM, first compound 0.316 µM
[18] = second compound 0.00949 µM, first compound 1 µM
[19] = second compound 0.03 µM, first compound 0.00316 µM
[20] = second compound 0.03 µM, first compound 0.01 µM
[21] = second compound 0.03 µM, first compound 0.0316 µM
[22] = second compound 0.03 µM, first compound 0.1 µM
[23] = second compound 0.03 µM, first compound 0.316 µM
[24] = second compound 0.03 µM, first compound 1 µM
[25] = second compound 0.0949 µM, first compound 0.00316 µM
[26] = second compound 0.0949 µM, first compound 0.01 µM
[27] = second compound 0.0949 µM, first compound 0.0316 µM
[28] = second compound 0.0949 µM, first compound 0.1 µM
[29] = second compound 0.0949 µM, first compound 0.316 µM
[30] = second compound 0.0949 µM, first compound 1 µM
[31] = second compound 0.3 µM, first compound 0.00316 µM
[32] = second compound 0.3 µM, first compound 0.01 µM
[33] = second compound 0.3 µM, first compound 0.0316 µM
[34] = second compound 0.3 µM, first compound 0.1 µM
[35] = second compound 0.3 µM, first compound 0.316 µM
[36] = second compound 0.3 µM, first compound 1 µM
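Further: spheroids exposed to agents for seven days before readout.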
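Wherever viability, T/C is given: luminescence viability as percent of DMSO vehicle control wells.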

- IC50 (second compound 0.000949 µM): > 1000 nM
- IC50 (second compound 0.003 µM): > 1000 nM
- IC50 (second compound 0.00949 µM): > 1000 nM
- IC50 (second compound 0.03 µM): > 1000 nM
- IC50 (second compound 0.0949 µM): > 1000 nM
- IC50 (second compound 0.3 µM): > 1000 nM
Compound: C=CC(=O)Nc1cc(Nc2nccc(-c3cn(C)c4ccccc34)n2)c(OC)cc1N(C)CCN(C)C + CCn1c(-c2cc(N3CCN(C)CC3)cnc2C(C)OC)c2c3cc(ccc31)-c1csc(n1)CC(NC(=O)C1CC1C)C(=O)N1CCCC(N1)C(=O)OCC(C)(C)C2
- viability, T/C [1]: 96.5%
- viability, T/C [2]: 109%
- viability, T/C [3]: 78%
- viability, T/C [4]: 86.9%
- viability, T/C [5]: 83.4%
- viability, T/C [6]: 91.6%
- viability, T/C [7]: 87.3%
- viability, T/C [8]: 106%
- viability, T/C [9]: 89.9%
- viability, T/C [10]: 80.8%
- viability, T/C [11]: 83.6%
- viability, T/C [12]: 75.8%
- viability, T/C [13]: 102%
- viability, T/C [14]: 90.8%
- viability, T/C [15]: 97.5%
- viability, T/C [16]: 84.8%
- viability, T/C [17]: 73.8%
- viability, T/C [18]: 80.3%
- viability, T/C [19]: 83%
- viability, T/C [20]: 97.4%
- viability, T/C [21]: 116%
- viability, T/C [22]: 89.9%
- viability, T/C [23]: 85.6%
- viability, T/C [24]: 94.4%
- viability, T/C [25]: 95%
- viability, T/C [26]: 92.5%
- viability, T/C [27]: 97.8%
- viability, T/C [28]: 78.6%
- viability, T/C [29]: 112%
- viability, T/C [30]: 91.7%
- viability, T/C [31]: 84.9%
- viability, T/C [32]: 97.2%
- viability, T/C [33]: 92%
- viability, T/C [34]: 97.5%
- viability, T/C [35]: 98.6%
- viability, T/C [36]: 138%

- IC50 (second compound 0.000949 µM): 38.2 nM
- IC50 (second compound 0.003 µM): 56.7 nM
- IC50 (second compound 0.00949 µM): 37.7 nM
- IC50 (second compound 0.03 µM): 11.9 nM
- IC50 (second compound 0.0949 µM): 17.9 nM
- IC50 (second compound 0.3 µM): 14.3 nM
Compound: O=C(c1ccc(F)c(F)c1Nc1ccc(I)cc1F)N1CC(O)([C@@H]2CCCCN2)C1 + CCn1c(-c2cc(N3CCN(C)CC3)cnc2C(C)OC)c2c3cc(ccc31)-c1csc(n1)CC(NC(=O)C1CC1C)C(=O)N1CCCC(N1)C(=O)OCC(C)(C)C2
- viability, T/C [1]: 68.3%
- viability, T/C [2]: 65.3%
- viability, T/C [3]: 49.6%
- viability, T/C [4]: 39.9%
- viability, T/C [5]: 27.2%
- viability, T/C [6]: 16.9%
- viability, T/C [7]: 70.3%
- viability, T/C [8]: 61.9%
- viability, T/C [9]: 69.6%
- viability, T/C [10]: 33.2%
- viability, T/C [11]: 26.1%
- viability, T/C [12]: 14.6%
- viability, T/C [13]: 68%
- viability, T/C [14]: 67.4%
- viability, T/C [15]: 51.7%
- viability, T/C [16]: 34%
- viability, T/C [17]: 22.1%
- viability, T/C [18]: 16%
- viability, T/C [19]: 77.4%
- viability, T/C [20]: 43%
- viability, T/C [21]: 45.9%
- viability, T/C [22]: 26.7%
- viability, T/C [23]: 20.6%
- viability, T/C [24]: 15.4%
- viability, T/C [25]: 75.9%
- viability, T/C [26]: 68%
- viability, T/C [27]: 32%
- viability, T/C [28]: 23.8%
- viability, T/C [29]: 18.1%
- viability, T/C [30]: 13.8%
- viability, T/C [31]: 67.8%
- viability, T/C [32]: 58.6%
- viability, T/C [33]: 31.1%
- viability, T/C [34]: 21.5%
- viability, T/C [35]: 18.8%
- viability, T/C [36]: 15.8%
